Key:
[1] = Rat 4 month medicated feed study: relative telomere length in buccal swab DNA (qPCR); type: in vivo, Sprague-Dawley rats; details: buccal swabs after 4 months feed; control 1.37 (SD=0.38)
From the text: Seventy-eight Sprague-Dawley rats aged either 16 or 22 months were maintained with daily 12-hour light/dark cycles and allowed constant access to feed and water. The animals were bred and housed at the Cantacuzino National Medico-Military Institute for Research and Development, Bucharest 050096, Romania. […] A buccal swab was then taken from each animal using an OracollectDNA OCR-100 sampling device (DNA Genotek, Canada). DNA was extracted using a DNeasy® Blood & Tissue Kit (Qiagen UK, Cat No 69505) which was checked for purity and quantified with a QuickDrop Spectrophotometer (Molecular Devices, Model 504 7178). […] R8908) was used. Five consecutive samples from each of the three treatment groups were analysed on each 96 well PCR plate to minimize any inter-plate variability.

[2] = tested on: NHEK cells; assay: Population doublings and telomere loss per population doubling of drug-treated NHEK's (qPCR); type: cell-based, human; details: passage 10 and 11 NHEK's, versus DMSO control, FIG. 8b
Protocol: Sub-confluent passage 2 NHEK's in T75 flasks were cultured in complete KSFM maintained at 5% CO2, 37° C. until ˜80% confluent as described in 1.5. These were subsequently passaged and accurate cell counts determined by Via-1 cassette NC3000 Image Cell Cytometer. An aliquot of 40,000 cells was then seeded into T25 flasks which were incubated for 24 hours in KKSFM at 5% CO2, 37° C. to allow cells to adhere. […] These cultures were then incubated for another 3 days at 5% CO2, 37° C. when confluency was approx 80%. At this point, cells were harvested, Via-1 counts carried out, 50,000 cells pelleted for DNA preparation (DNeasy® Blood & Tissue Kit, Qiagen UK, Cat No 69505) and 40,000 cells seeded into a fresh T-25 flask for each specific drug treatment. The whole procedure was then repeated 8 times until passage 11. Extracted DNA quality and quantity was determined with a QuickDrop DNA Spectrophotometer (Molecular Devices. Model 504 7178) and then this was used to analyse comparative telomere length in each sample by use of a Relative Human Telomerase Length Quantification qPCR Assay Kit (ScienCell™, Cat No 8908) with a Stratagen qPCR/Real Time PCR Machine. Model Mx3005P®. […] Analysis of relative telomere length was carried out on DNA extracted from passages 3-10 in triplicate using a qPCR Assay Kit (ScienCell™, Cat No 8908), according to the manufacturer's instructions.

[3] = tested on: post-confluent NHEK cells; assay: Growth of re-cultured post-confluent (cell-cell contact growth arrested) NHEK's; type: cell-based, human; details: for concentration causing optimal cell growth: post-confluent NHEK
From the text: Neonatal human epidermal foreskin keratinocytes (NHEKs) were used to test the ability of compounds to reverse, arrest or slow down cellular ageing. These cells typically undergo approximately 35 cell divisions before the Hayflick limit is reached but they can be induced to undergo premature senescence and, what has been understood to be, irreversible growth arrest earlier than this by induction of cell-cell contact growth inhibition when cultured at high cell density/to confluence (Poumay & Pittelkow 1995 J Inv Dermatol 104, p 271-276). The inventors were thus inspired to culture post-confluent cells and assess the effect of test compounds on the growth, telomere loss and secretion of inflammatory factors by such cells. An experimental schematic is provided as FIG. 1. 1.1 Culture of Early Passage NHEK's in the Presence and Absence of y27632 Pooled donor neonatal NHEK's (Cat No C-12005, Lot No 456Z001.1, PromoCell GmBH), serum-free PromoCell Keratinocyte Growth Medium 2 (KSFM, Cat No C20011. Lot No 472M197), CaCl2) (Lot No 471055) and Supplements (Lot No 472M013) were all obtained from PromoCell GmBH. NHEK's were thawed directly into a single T75 in 20 mls of complete KSFM (CaCl2 & Supplements), incubated over night at 37° C., 5% CO2 and the medium changed the following day. After 3 days the cells were 80% confluent and were passaged (Ist) using 0.05% Trypsin+EDTA (Gibco) into ×2 T75 flasks at a split ratio of 1:4. After overnight incubation at 37° C., 5% CO2, the cultures were at 30% confluence and 10 μM Y27632 (Cat No 688000, Lot No 2884132, Merck) was added to one of the flasks. […] Fresh T75 flasks were seeded with 5.0×10^5 cells from each in their respective medium. […] Fresh T75 flasks were seeded, as described previously, and also 1.2×10^4 NHEK cells/well were seeded into 24 well plates, incubated overnight to allow cell attachment, and the following subsequently added to separate wells: • A. NHEK in complete KSFM • B. NHEK+Y27632 in complete KSFM • C. Y27632 treated NHEK transferred to complete KSFM (Y27632 Removed) • D. NHEK transferred to complete KSFM+500 nM Tadalafil • E. NHEK transferred to complete KSFM+750 nM Tadalafil • F. NHEK transferred to complete KSFM+1000 nM Tadalafil • G. NHEK transferred to complete KSFM+1250 nM Tadalafil • H. NHEK transferred to complete KSFM+50 nM Fenbendazole • I. NHEK transferred to complete KSFM+100 nM Fenbendazole • J. NHEK transferred to complete KSFM+150 nM Fenbendazole • K. NHEK transferred to complete KSFM+200 nM Fenbendazole All drugs were added 24 hours after seeding. […] FIG. 2B is an example of the appearance of post-confluent cells.
Post-confluent NHEK's (FIG. 2B) were subsequently passaged (4th) into a fresh 24 well plate using a split ratio of 1 in 4 in 2 mls of fresh complete KSFM. These were left overnight to attach and the same compounds added (as shown in A-K of 1.1) followed by incubation for a further 24 hours and subsequently photographed.

[4] = Canine case studies: age-related pathologies and tumour observations; type: in vivo, dog
Protocol: In 2017, a […] (D.O.B Jan. 5, 2008) female Lhasa Apso/Jack Russell/Shih Tzu cross-breed (confirmed by genetic breed analysis: DNA-My-Dog) with a body mass of 9 Kg, was treated with 0.6 gm/day of 22.2% Fenbendazole (Panacur® granules) which was given orally for 3 consecutive days/week for 1 month and this cycle was repeated every 3rd month giving 4 cycles/annum providing a total of 16×1 month treatment cycles spread over a period of 4 yrs up to the present day.
In 2017, a 4 yr old Jack Russell/Poodle/Maltese cross-breed (Confirmed by genetic breed analysis: DNA-My-Dog) with a body mass of 9.2 Kg was treated with 1.0 gm/day of 22.2% Fenbendazole Panacur® granules for 3 days per week and 4 days without. The dosing schedule of 3 days with, 4 days without treatment per week was continued for 3 months after which the dose was reduced to 0.6 gm/day of Panacur® and treatment alternated between 1 month with and 1 month without for 19 months providing a total of 11×1 month treatment cycles over the whole time period. After this, treatment was discontinued for 2 years and 5 months up to 12 May 2022 when a cheek swab was taken for analysis of biological age and this was repeated 5 months later on the 30 Sep. 2022.
The initial reason for treating this animal was that it had been diagnosed with an anal sac adenocarcinoma and, at the time, it was decided to explore the use of Fenbendazole as an alternative treatment. […] Subject C2B's birth date was May 2014 giving a chronological age of 8 yrs which was verified by microchip implantation date using the Petlog database. Following the outlined treatment with Fenbendazole, in April 2022, a cheek epithelium swab was sent to DNA-My-Dog for assessment of breed composition and biological age by analysis of breed-specific telomere length. The result, returned on the 12 May 2022, reported a biological age of 1 yr old indicating a reduction in biological age of 7 yrs. which is equivalent to ˜90% reduction in biological age. […] After a further gap of 5 months without treatment, on the 30 Sep. […] However, unlike subject C2A, no treatment was given during this period so the most likely explanation is that the efficacy time-limit of the initial treatment has been exceeded.

COC(=O)Nc1nc2ccc(Sc3ccccc3)cc2[nH]1 [Fenbendazole, methyl 5-(phenylthio)-2-benzimidazole carbamate]
average telomere length, times that in DNA from a 30 month old comparator [1]: 1.59 (SD=0.48) | relative telomere loss per population doubling [2]: greatest reduction | continued growth of post-confluent NHEK's (phase contrast) ([3]; passage 4, 24 hours with compound, 10 μM Y27632, 500-1250 nM Tadalafil, 50-200 nM Fenbendazole, FIG. 3): all exhibited cell growth | concentration causing optimal cell growth ([3]; cultured for a further 24 hrs, FIG. 4): 100 to 150 nM | concentration causing optimal cell growth ([3]; passage 4, 24 hours, FIG. 3): 100 to 150 nM | body weight and physical activity ([4]; dog C2A, during 4 yr treatment): significant weight-loss and increased physical activity | growth of teeth ([4]; dog C2A, during 4 yr treatment): activation of new growth of teeth | skin conditions / subcutaneous lesions ([4]; dog C2A, during 4 yr treatment): normalization of skin and regression of subcutaneous lipoma like lesions | persistence of anti-ageing effects after treatment is discontinued ([4]; dog C2B): at least 2 years | visible signs of ageing ([4]; dog C2B): does not show any visible signs of ageing | anal sac adenocarcinoma tumour ([4]; dog C2B, during treatment): regressed

— patent US20250352518A1, “A BENZIMIDAZOLE COMPOUND WITH ANTIHELMINTHIC ACTIVITY FOR USE IN REVERSING, ARRESTING OR SLOWING DOWN CELLULAR AGEING IN A VERTEBRATE SUBJECT” (RAVAN BIO LIMITED, priority 2022, published 2025)
